Measurements taken from patent publication US7893299B2, “Interleukin-1 and tumor necrosis factor-αmodulators; syntheses of such modulators and methods of using such modulators” (Nereus Pharmaceuticals, Inc., priority 2005, dated 2011).

Assays:
[1] = tested on: IκBα phosphorylation; assay: phosphorylation level of IκBα induced by LPS in RPMI 8226 cells; type: cell-based; conditions: formula (IIB-A1) 13 μM, TTL3 10 μM, 50 ng/ml LPS
Method: One ml/well of 2×10^6/ml RPMI 8226 cells (#CCL-155C, American Type Culture Collection) were seeded in 6-well plate in LGM-3 medium and cultured for overnight at 37° C., 5% CO2 and 95% humidified air. TTL3 and formula (IIB-A1) were added to RPMI 8226 cells at the final concentration of 10 μM and 13 μM for 1 hr, respectively. DMSO was used as a control. Cells were then stimulated with 50 ng/ml LPS diluted in LGM-3 medium from 1 mg/ml stock solution for 30 min, 1 hr, 2 hr and 4 hr. At the end of each time point, cells were harvested by centrifugation and cell pellets were washed once in ice-cold 1× DPBS. To prepare samples for SDS-PAGE, cells were lysed in RIPA buffer (50 mM Tris-HCl, pH7.4, 0.9% NaCl, 1% Triton X-100, 0.25% Na-deoxycholate, 1 mM EDTA, 2 mM Na3VO4 and 1× protease inhibitors cocktail) for 15 min on ice. Cell lysates were cleared by centrifugation at 14,000 rpm, 4° C. for 10 min. Protein concentrations of cell lysates were determined by BCA protein assay kit prior to SDS-PAGE. Equal amount of proteins from various cell lysates were resolved on 10% NuPage MES precast gels and transferred to nitrocellulose membranes according to the manufacturer's instructions. After transfer membranes were first blocked in BLOTTO (5% Non-fat dry milk in 1× DPBS buffer containing 0.1% Tween-20) at room temperature for 2 hr and then incubated with appropriate primary antibodies: anti-phospho-IκBα (1:1000) or anti-Tubulin (1:2000) for 2 hr. Antibody against tubulin was used as a control to confirm the equal loading of each sample. After the primary antibody incubation, membranes were washed briefly 2-3 times for 10 min each with BLOTTO and again incubated with sheep anti-mouse HRP conjugated secondary antibody for 1 hr. Following the secondary antibody incubation, membranes were washed extensively 4 times for 15 min each with PBST (1× DPBS plus 0.1% Tween-20). HRP activity was visualized by the enhanced chemiluminescence (ECL) detection system.

[2] = tested on: HEK-293 cells; assay: cell growth inhibition, HEK-293, Resazurin, 1% FBS; type: cell-based, Human; conditions: 48 hr of drug exposure
Method: Human prostate adenocarcinoma (PC-3; CRL-1435), multiple myeloma (RPMI 8226; CCL-155) and embryonic kidney (HEK-293; CRL-1573) cells were all purchased from ATCC and maintained in appropriate culture media. The cells were cultured in an incubator at 37° C. in 5% CO2 and 95% humidified air.
For cell growth inhibition assays, PC-3 and HEK-293 cells were seeded at 5×10^3 and 1.5×10^3 cells/well respectively in 90 μl media containing 1% (v/v) FBS into 96 well (Corning; 3904) black-walled, clear-bottom tissue culture plates and the plates were incubated overnight to allow cells to establish and enter log phase growth. RPMI 8226 cells were seeded at 2×10^4 cells/well respectively in 90 μl media containing 1% (v/v) FBS into 96 well plates on the day of the assay. 4 mg/ml stock solutions of the compounds were prepared in 100% DMSO and stored at −20° C. The compounds were serially diluted and added in triplicate to the test wells. LT-1-85 was tested at concentrations ranging from 27 μM to 8.6 nM. Concentrations ranging from 30 μM to 9.7 nM were tested for CC-3-13P. Formula (IIB-A1) was tested at concentrations ranging from 26 μM to 8.4 nM. The plates were returned to the incubator for 48 hours. The final concentration of DMSO was 0.25% in all samples.
Following 48 hours of drug exposure, 10 μl of 0.2 mg/ml Resazurin in Mg2+, Ca2+ free phosphate buffered saline was added to each well and the plates were returned to the incubator for 3-6 hours. Since living cells metabolize Resazurin, the fluorescence of the reduction product of Resazurin was measured using a Fusion microplate fluorometer (Packard Bioscience) with λex=535 nm and λem=590 nm filters. Resazurin dye in medium without cells was used to determine the background, which was subtracted from the data for all experimental wells. […] Where the maximum inhibition of cell growth was less than 50%, an EC50 value was not determined. The data in Table 25 summarize the growth inhibitory effects of LT-1-85, CC-3-13P and formula (IIB-A1) against HEK-293, PC-3 and RPMI 8226 cells. […]

[3] = tested on: THP-1 cells; assay: resazurin viability assay in THP-1 cells; type: cell-based, human; conditions: * mild, ** marked reduction in viability, in % (unit assumed)
Method: The ability to inhibit TNF-α production was analyzed in THP-1 cells, a human acute monocytic leukemia cell line that is widely used to assess monocyte functions. In order to induce maturation, THP-1 cells were plated at 1×10^6 cells/ml and pretreated with 5 nM PMA for two days. Differentiated THP-1 cells were pretreated with various concentrations of TTL3 or its analogs for 1 hour, followed by a 4 hour incubation with 1 μg of LPS (Sigma, St. Louse, Mo.). The p38 inhibitor (SB 203580; Sigma, St. Louis, Mo.) was used as a positive control. Supernatants were collected and stored at −80° C. until assayed for TNF-α activity. A resazurin assay was performed for each analog to evaluate the effects on cell metabolism and viability.
A preparation of the dye resazurin, commercially-available as alamarBlue™ (Biosource International Inc., 820 Flynn Road, Camarillo, Calif.), was used for the cytotoxicity assays described herein. The assays and experiments described herein were conducted in substantially the same manner as described in the scientific literature, for example, in Magnani, E. and Bettini, E., “Resazurin detection of energy metabolism changes in serum-starved PC12 cells and of neuroprotective agent effect,” Brain Res Protoc., 2000 July; 5(3):266-72 and in Nociari M. M., Shalev A., Benias P., and Russo C. J, “A novel one-step, highly sensitive fluorometric assay to evaluate cell-mediated cytotoxicity,” Immunol. Methods 213, 157-167 (1998), see also U.S. Pat. No. 5,501,959, entitled “Antibiotic and Cytotoxic Drug Susceptibility Assays using Resazurin and Poising Agents,” the entire specification of which is incorporated herein by reference.

In the case of `C=C[C@@]1(C)CCC=C2[C@H]1CC[C@@H]1[C@](C)(C(=O)NC3CCCCC3)CCC[C@@]21C` [Formula (IIB-A1), N-Cyclohexylamide Derivative of TTL], the “level of IκBα phosphorylation induced by LPS in RPMI 8226 cells” value (“level of IκBα phosphorylation induced” below) [1] is reported as “decrease”, the “level of IκBα phosphorylation induced” value ([1]; listed as formula (IIB-A1)) is reported as “greatly reduced” and the EC50 ([2]; Homo sapiens, HEK293, 48 h) is reported as greater than 26 µM.
`C=C[C@@]1(C)CCC=C2[C@H]1CC[C@@H]1[C@](C)(C(=O)N3CCOCC3)CCC[C@@]21C` [LT-1-85] was tested, and the EC50 [2] was 22 µM, the EC50 ([2]; Homo sapiens, HEK293, 48 h) was 23 µM and the “Effect on Cell Viability” value ([3]; 100 ng/ml) was 100. For the same compound, the “Effect on Cell Viability” value ([3]; 1 ug/ml) was 100 and the “Effect on Cell Viability” value ([3]; 10 ug/ml) was 80*.
With `C=C[C@@]1(C)CCC=C2[C@H]1CC[C@@H]1[C@](C)(C(=O)OC)CCC[C@@]21C` [TTL3] the “level of IκBα phosphorylation induced” value [1] was “minimal”, the “Effect on Cell Viability” value ([3]; 100 ng/ml) was 100 and the “Effect on Cell Viability” value ([3]; 1 ug/ml) was 100. For the same compound, the “Effect on Cell Viability” value ([3]; 10 ug/ml) was 100.
